Where two headings read alike, the source gives them in different places. One block for each compound: values may come before it.
How the values were obtained:
PI3K β = PI3K β (Homo sapiens, UniProt P42338); assay: PI 3-Kinase HTRF inhibition assay, PI3K β; type: biochemical
Method: (§1) Commercial kits or systems for assaying PI3-K activities are available. The commercially available kits or systems can be used to screen for inhibitors and/or agonists of PI3-Ks including but not limited to PI 3-Kinase α, β, δ, and γ. Anr exemplary system is PI 3-Kinase (human) HTRF™ Assay from Upstate. […] Briefly, the assay is a time resolved FRET assay that indirectly measures PIP3 product formed by the activity of a PI3-K. The kinase reaction is performed in a microtitre plate (e.g., a 384 well microtitre plate). The total reaction volume is approximately 20 ul per well. In the first step, each well receives 2 ul of test compound in 20% dimethylsulphoxide resulting in a 2% DMSO final concentration. Next, approximately 14.5 ul of a kinase/PIP2 mixture (diluted in 1× reaction buffer) is added per well for a final concentration of 0.25-0.3 ug/ml kinase and 10 μM PIP2. The plate is sealed and incubated for 15 minutes at room temperature. To start the reaction, 3.5 ul of ATP (diluted in 1× reaction buffer) is added per well for a final concentration of 10 μM ATP. The plate is sealed and incubated for 1 hour at room temperature. The reaction is stopped by adding 5 ul of Stop Solution per well and then 5 ul of Detection Mix is added per well. The plate is sealed, incubated for 1 hour at room temperature, and then read on an appropriate plate reader. Data is analyzed and IC50s are generated using GraphPad Prism 5. For PI3K α, β, δ, and γ, the nM conentration of inhibitor to reach IC50 is provided. […] Similar assays, and others known in the art, can be used to measure the percent inhibition of other kinases, including but not limited to PI3K class II kinases, phosphoinositide 4 kinases (PI4K), and phosphoinositide 5 kinases (PI5K).

PI3K α = PI3K α (Homo sapiens, UniProt P42336); assay: PI 3-Kinase HTRF inhibition assay, PI3K α; type: biochemical; details: in vitro
Method: as §1

PI3K δ = PI3K δ (Homo sapiens, UniProt O00329); assay: PI 3-Kinase HTRF inhibition assay, PI3K δ; type: biochemical; details: in vitro
Method: as §1

PI3K γ = PI3K γ (Homo sapiens, UniProt P48736); assay: PI 3-Kinase HTRF inhibition assay, PI3K γ; type: biochemical; details: in vitro
MDA-MB-361 = MDA-MB-361 proliferation; type: cell-based; details: Homo sapiens; in vitro IC50, MDA-MB-361 cells
Method: The ability of one or more subject compounds to inhibit tumor cell line proliferation is determined according to standard procedures known in the art. For instance, an in vitro cellular proliferation assay can be performed to measure the metabolic activity of live cells. The assay is performed in a 96 well microtiter plate using Alamar Blue reduction. Human tumor cell lines are obtained from ATCC (e.g., MCF7, U-87 MG, MDA-MB-468, PC-3), grown to confluency in T75 flasks, trypsinized with 0.25% trypsin, washed one time with Tumor Cell Media (DMEM+10% FBS), and plated in 90 ul at 5,000 cells/well in Tumor Cell Media. A compound disclosed herein is diluted in Tumor Cell Media and added in a 10 ul volume. Plates are incubated for 72 hours at 37 C and 5% CO2. A volume of 10 uL of Alamar Blue reagent is added to each well and plates are incubated for 3 hours at 37 C and 5% CO2. Alamar Blue fluoresce is read at 560 Ex/590 Em, and IC50 values are calculated using GraphPad Prism 5.
Cells comprising one or more mutations in PI3Kα, including but not limited to breast cancer cells (e.g., MDA-MB-361 and T47D), and cells comprising one or more mutations in PTEN including but not limited to prostate cancer cells (e.g., PC3), are typically grown in cell growth media such as DMEM supplemented with fetal bovine serum and/or antibiotics, and grown to confluency. Cells are then treated with various concentrations of test compound for about 2 hours and subsequently lysed in cell lysis buffer. Lysates are subjected to SDS-PAGE followed by Western blot analysis to detect downstream signaling markers, including but not limited to pAKT(S473), pAKT(T308), pS6, and p4E-BP1. Degree of proliferation (and proliferation inhibition) can also be measured for cells at various doses of compound of the present invention.

[1] = in vitro, read-out: PI3K β IC50

PI3K α, sequence (P42336 whole entry): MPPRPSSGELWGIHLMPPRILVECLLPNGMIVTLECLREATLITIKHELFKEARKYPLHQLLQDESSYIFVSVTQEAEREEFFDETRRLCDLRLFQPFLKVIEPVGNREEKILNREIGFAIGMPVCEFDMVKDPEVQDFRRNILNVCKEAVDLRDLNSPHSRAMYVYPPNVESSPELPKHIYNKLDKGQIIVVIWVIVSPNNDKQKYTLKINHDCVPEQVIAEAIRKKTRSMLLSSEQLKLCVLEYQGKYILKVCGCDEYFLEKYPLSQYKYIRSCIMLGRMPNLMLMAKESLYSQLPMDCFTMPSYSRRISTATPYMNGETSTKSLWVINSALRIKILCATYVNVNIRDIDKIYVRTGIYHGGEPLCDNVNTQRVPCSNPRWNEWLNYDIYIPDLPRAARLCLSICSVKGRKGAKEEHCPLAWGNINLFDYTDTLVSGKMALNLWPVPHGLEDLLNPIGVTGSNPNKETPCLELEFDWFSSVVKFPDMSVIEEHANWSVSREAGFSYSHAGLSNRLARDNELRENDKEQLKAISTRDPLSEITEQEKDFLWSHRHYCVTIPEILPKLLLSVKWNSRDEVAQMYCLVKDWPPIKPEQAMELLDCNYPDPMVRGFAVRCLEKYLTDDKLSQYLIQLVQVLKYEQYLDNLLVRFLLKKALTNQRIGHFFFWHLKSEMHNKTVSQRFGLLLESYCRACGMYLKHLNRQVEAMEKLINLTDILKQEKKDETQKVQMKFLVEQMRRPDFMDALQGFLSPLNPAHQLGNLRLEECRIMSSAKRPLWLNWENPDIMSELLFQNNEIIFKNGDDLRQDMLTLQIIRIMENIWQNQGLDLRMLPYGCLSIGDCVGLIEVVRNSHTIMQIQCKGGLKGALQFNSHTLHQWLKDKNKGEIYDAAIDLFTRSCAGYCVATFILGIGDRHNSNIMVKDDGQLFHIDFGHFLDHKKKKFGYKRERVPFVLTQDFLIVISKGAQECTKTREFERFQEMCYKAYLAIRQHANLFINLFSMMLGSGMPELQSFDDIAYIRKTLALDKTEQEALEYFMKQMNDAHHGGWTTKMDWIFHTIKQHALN
PI3K α, sequence (P27986 whole entry partner): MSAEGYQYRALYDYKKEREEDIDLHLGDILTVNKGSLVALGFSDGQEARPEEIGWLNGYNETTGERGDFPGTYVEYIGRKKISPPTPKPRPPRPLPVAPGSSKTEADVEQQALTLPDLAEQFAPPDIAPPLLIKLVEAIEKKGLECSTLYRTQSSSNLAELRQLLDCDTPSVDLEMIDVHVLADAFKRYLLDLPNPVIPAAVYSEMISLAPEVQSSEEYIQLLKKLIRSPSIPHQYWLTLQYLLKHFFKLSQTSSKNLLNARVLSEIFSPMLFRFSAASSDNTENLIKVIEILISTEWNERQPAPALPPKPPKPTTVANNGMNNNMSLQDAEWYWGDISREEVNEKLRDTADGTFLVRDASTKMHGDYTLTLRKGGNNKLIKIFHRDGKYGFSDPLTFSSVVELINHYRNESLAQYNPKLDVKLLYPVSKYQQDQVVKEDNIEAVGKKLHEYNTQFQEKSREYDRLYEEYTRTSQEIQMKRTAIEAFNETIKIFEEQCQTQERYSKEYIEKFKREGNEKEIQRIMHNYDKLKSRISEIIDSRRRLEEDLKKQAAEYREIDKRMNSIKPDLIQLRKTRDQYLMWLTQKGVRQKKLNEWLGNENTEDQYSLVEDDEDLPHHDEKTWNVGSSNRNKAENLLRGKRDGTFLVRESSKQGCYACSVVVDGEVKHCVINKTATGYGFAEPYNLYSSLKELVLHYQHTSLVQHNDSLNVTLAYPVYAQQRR
PI3K δ, sequence (O00329 whole entry): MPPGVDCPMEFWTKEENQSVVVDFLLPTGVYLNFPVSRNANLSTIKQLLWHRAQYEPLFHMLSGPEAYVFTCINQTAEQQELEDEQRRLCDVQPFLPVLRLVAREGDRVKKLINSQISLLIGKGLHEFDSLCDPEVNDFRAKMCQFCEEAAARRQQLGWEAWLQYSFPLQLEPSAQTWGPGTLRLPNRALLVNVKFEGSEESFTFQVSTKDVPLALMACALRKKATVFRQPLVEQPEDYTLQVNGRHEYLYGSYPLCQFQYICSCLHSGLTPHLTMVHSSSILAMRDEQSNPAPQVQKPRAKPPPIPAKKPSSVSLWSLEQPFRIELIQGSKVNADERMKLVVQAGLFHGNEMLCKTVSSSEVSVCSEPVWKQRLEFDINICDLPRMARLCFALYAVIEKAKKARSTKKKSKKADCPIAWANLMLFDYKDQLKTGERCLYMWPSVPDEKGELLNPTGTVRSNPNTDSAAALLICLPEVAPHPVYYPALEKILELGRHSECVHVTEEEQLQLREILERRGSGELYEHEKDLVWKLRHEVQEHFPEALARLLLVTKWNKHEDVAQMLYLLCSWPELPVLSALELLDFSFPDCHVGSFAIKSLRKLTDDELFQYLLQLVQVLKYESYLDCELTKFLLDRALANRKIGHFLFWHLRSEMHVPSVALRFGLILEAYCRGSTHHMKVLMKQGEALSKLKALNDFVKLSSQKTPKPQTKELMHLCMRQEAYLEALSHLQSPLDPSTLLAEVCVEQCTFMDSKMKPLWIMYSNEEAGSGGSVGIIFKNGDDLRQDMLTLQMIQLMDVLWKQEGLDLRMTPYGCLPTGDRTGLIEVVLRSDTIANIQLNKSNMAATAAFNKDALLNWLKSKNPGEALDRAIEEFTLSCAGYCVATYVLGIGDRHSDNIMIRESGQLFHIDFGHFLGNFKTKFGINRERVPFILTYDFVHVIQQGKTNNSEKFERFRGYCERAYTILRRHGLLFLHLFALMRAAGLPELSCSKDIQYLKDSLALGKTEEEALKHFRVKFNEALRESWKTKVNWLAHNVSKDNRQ
PI3K δ, sequence (P27986 whole entry partner): as the sequence (P27986 whole entry partner) above
PI3K β, sequence (P42338 whole entry): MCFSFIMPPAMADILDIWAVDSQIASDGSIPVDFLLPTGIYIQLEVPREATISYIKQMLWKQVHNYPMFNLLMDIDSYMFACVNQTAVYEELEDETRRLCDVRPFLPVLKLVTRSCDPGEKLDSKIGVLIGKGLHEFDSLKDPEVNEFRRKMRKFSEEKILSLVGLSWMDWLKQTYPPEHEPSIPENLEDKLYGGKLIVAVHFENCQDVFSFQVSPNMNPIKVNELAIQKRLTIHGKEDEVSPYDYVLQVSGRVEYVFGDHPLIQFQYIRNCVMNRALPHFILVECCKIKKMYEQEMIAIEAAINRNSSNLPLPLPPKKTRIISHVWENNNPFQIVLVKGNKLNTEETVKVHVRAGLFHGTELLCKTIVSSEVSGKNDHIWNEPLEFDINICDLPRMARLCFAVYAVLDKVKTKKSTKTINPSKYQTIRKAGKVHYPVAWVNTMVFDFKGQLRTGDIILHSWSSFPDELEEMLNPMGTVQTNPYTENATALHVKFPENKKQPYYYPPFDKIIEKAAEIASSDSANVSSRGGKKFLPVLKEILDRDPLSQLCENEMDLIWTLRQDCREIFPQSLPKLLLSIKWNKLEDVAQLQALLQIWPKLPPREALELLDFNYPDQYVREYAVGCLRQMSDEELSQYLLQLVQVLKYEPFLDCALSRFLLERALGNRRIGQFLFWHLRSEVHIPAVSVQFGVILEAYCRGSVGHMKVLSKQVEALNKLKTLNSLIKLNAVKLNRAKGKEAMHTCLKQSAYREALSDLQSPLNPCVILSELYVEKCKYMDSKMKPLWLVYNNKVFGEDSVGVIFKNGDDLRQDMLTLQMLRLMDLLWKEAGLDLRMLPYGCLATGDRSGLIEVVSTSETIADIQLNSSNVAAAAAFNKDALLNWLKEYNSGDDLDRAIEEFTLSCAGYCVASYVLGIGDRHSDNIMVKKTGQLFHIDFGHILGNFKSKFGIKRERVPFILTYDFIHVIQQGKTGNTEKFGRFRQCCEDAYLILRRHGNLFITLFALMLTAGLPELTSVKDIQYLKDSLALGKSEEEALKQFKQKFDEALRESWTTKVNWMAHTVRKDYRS
PI3K β, sequence (P27986 whole entry partner): as the sequence (P27986 whole entry partner) above
PI3K γ, sequence (P48736 whole entry): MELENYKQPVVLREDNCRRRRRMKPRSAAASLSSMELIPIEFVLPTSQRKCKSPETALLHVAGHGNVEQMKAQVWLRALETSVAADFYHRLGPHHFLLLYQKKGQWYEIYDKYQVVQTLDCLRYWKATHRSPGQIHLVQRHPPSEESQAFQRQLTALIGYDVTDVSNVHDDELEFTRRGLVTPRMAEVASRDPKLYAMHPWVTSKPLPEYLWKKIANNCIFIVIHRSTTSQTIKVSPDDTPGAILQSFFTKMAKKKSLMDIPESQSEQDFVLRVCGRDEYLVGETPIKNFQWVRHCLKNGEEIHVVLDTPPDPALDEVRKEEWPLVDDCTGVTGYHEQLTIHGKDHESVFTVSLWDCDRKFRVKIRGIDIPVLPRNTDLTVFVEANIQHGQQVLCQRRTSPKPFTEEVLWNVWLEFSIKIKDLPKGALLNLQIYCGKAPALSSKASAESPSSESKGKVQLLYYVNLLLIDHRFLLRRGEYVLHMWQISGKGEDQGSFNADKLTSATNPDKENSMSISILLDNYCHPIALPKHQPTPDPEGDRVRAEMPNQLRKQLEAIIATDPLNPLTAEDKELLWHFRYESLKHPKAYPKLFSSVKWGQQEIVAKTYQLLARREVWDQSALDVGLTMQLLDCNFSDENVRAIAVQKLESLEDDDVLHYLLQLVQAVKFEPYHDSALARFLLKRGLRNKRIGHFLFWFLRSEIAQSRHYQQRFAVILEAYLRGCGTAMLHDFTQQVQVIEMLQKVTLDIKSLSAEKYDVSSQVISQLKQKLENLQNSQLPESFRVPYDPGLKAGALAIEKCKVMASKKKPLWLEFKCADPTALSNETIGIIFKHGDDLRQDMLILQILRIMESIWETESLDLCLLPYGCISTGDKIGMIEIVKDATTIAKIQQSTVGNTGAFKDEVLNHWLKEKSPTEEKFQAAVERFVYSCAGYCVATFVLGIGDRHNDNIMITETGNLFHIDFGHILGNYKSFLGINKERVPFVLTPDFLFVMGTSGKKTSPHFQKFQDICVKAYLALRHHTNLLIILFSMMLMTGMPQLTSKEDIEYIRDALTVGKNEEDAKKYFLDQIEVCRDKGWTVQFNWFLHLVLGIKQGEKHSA

IC50 (PI3K β; [1]): > 10 µM | IC50 (PI3K α): < 0.1 µM | IC50 (PI3K δ): > 10 µM | IC50 (PI3K γ): > 10 µM
SMILES: CC(C)N1CCN(C2CN(c3cnc4ccc(-c5ccc6nc(N)[nH]c6c5)nc4c3)C2)CC1 [Compound 85]

IC50 (PI3K β; [1]): > 10 µM | IC50 (PI3K δ): > 10 µM | IC50 (PI3K γ): > 10 µM
SMILES: CN1CCN(C2CN(c3ccc4ncc(-c5ccc6oc(N)nc6c5)cc4n3)C2)CC1 [Compound 84]

IC50 (PI3K β; [1]): < 1 µM | IC50 (MDA-MB-361): < 0.1 µM | IC50 (PI3K α): < 0.1 µM | IC50 (PI3K δ): < 0.1 µM | IC50 (PI3K γ): < 1 µM
SMILES: CN1CCN(C2CN(c3cnc4ccc(-c5ccc6oc(N)nc6c5)nc4c3)C2)CC1(C)C [Compound 83]

IC50 (PI3K β; [1]): > 10 µM | IC50 (PI3K α): < 1 µM | IC50 (PI3K δ): > 10 µM
SMILES: Nc1nc2cc(-c3ccc4ncc(N5CC(N6CC7CCC(C6)O7)C5)nc4n3)ccc2o1 [Compound 20]

IC50 (PI3K β; [1]): < 1 µM | IC50 (MDA-MB-361): < 10 µM | IC50 (PI3K α): < 0.1 µM | IC50 (PI3K δ): < 1 µM | IC50 (PI3K γ): < 1 µM
SMILES: CN1CC2CN(c3cnc4ccc(-c5ccc6oc(N)nc6c5)nc4c3)CC2C1 (stereo not drawn) [Compound 79]

IC50 (PI3K β; [1]): > 10 µM | IC50 (PI3K α): < 0.1 µM | IC50 (PI3K δ): > 10 µM | IC50 (PI3K γ): > 10 µM
SMILES: C[C@@H]1CN(C2CN(c3cnc4ccc(-c5ccc6nc(N)[nH]c6c5)nc4c3)C2)CCN1C [Compound 86]

IC50 (PI3K β; [1]): > 10 µM | IC50 (PI3K α): < 1 µM | IC50 (PI3K δ): > 10 µM
SMILES: CC1CN(C2CN(c3cnc4ccc(-c5ccc6oc(N)nc6c5)nc4n3)C2)CCO1 (stereo not drawn) [Compound 18]

IC50 (PI3K β; [1]): > 10 µM | IC50 (PI3K α): < 0.1 µM | IC50 (PI3K δ): > 10 µM | IC50 (PI3K γ): > 10 µM
SMILES: CCN1CCN(C2CN(c3cnc4ccc(-c5ccc6nc(N)[nH]c6c5)nc4c3)C2)CC1 [Compound 87]

IC50 (PI3K β; [1]): > 10 µM | IC50 (PI3K δ): > 10 µM | IC50 (PI3K γ): > 10 µM
SMILES: Nc1nc2cc(-c3ccc4ncc(N5CC(N6C7CCC6COC7)C5)nc4n3)ccc2o1 [Compound 51]

IC50 (PI3K β; [1]): > 10 µM | IC50 (MDA-MB-361): < 1 µM | IC50 (PI3K α): < 0.1 µM | IC50 (PI3K δ): > 10 µM | IC50 (PI3K γ): < 0.1 µM
SMILES: Nc1nc2cc(-c3ccc4ncc(N5CC6CCC(C5)O6)cc4n3)ccc2o1 [Compound 59]

The next lines start with the compound.

SMILES: Nc1nc2cc(-c3ccc4ncc(N5C6CCC5COC6)cc4n3)ccc2o1 [Compound 23]
IC50 (PI3K α): < 0.1 µM | IC50 (PI3K δ): > 10 µM | IC50 (PI3K γ): < 0.1 µM

SMILES: Nc1nc2cc(-c3cnc4ccc(N5C6CCC5COC6)nc4c3)ccc2o1 [Compound 81]
IC50 (PI3K β): > 10 µM | IC50 (PI3K δ): > 10 µM

SMILES: Nc1nc2cc(-c3ccc4ncc(N5CC(N6C7CCC6COC7)C5)cc4n3)ccc2o1 [Compound 67]
IC50 (PI3K β; [1]): > 10 µM | IC50 (MDA-MB-361): < 10 µM | IC50 (PI3K α): < 0.1 µM | IC50 (PI3K γ): < 1 µM

SMILES: CN1CCN(C2CN(c3cnc4ccc(-c5ccc6nc(N)[nH]c6c5)nc4c3)C2)CC1 [Compound 88]
IC50 (PI3K β; [1]): > 10 µM | IC50 (PI3K α): < 0.1 µM | IC50 (PI3K δ): > 10 µM | IC50 (PI3K γ): > 10 µM

SMILES: Nc1nc2cc(-c3ccc4ncc(N5C6CCC5COC6)nc4n3)ccc2o1 [Compound 19]
IC50 (PI3K β; [1]): > 10 µM | IC50 (MDA-MB-361): < 1 µM | IC50 (PI3K α): < 0.1 µM | IC50 (PI3K δ): > 10 µM | IC50 (PI3K γ): < 0.1 µM

SMILES: C[C@H]1CN(C2CN(c3cnc4ccc(-c5ccc6nc(N)[nH]c6c5)nc4c3)C2)CCN1C [Compound 89]
IC50 (PI3K β; [1]): > 10 µM | IC50 (PI3K α): < 0.1 µM | IC50 (PI3K δ): > 10 µM | IC50 (PI3K γ): > 10 µM

SMILES: Nc1nc2cc(-c3ccc4ncc(N5CC6CCC(C5)O6)nc4n3)ccc2o1 [Compound 28]
IC50 (PI3K β; [1]): > 10 µM | IC50 (MDA-MB-361): < 1 µM | IC50 (PI3K α): < 0.1 µM | IC50 (PI3K δ): > 10 µM | IC50 (PI3K γ): < 1 µM

— patent US20140323721A1, “HETEROCYCLIC COMPOUNDS AND USES THEREOF” (INTELLIKINE, LLC, priority 2011, published 2014)
